# From patent US20260374773A1, “MULTI-CYCLIC IRAK AND FLT3 INHIBITING COMPOUNDS AND USES THEREOF” (CHILDREN'S HOSPITAL MEDICAL CENTER, priority 2022, published 2026)
# System: THP1 cells
# Experiment: Combination drug screening with venetoclax, Cell Titer Glo, THP1
# Type: cell-based
# Details: compound 0-0.1 μM, venetoclax 0-20 μM, 10 × 10, 48 h, negative = synergy
# Experimental: Combination drug therapy has the potential to produce enhanced effects with lower side effects not obtained using either agent alone, or beyond the additive effect of the different concentrations of the two different agents. To determine whether enhanced effects are observed in different drug combinations, combination drug screening was performed as previously described (Mathews-Griner, L. A. et al., Proc. Nat. Acad. Sci., 2014, 111:2349-2354; Lin, G. L. et al., Sci. Trans. Med., 2019, 11: eaaw0064). Briefly, 10 nL of compounds were acoustically dispensed into 1536-well white polystyrene tissue culture-treated plates with an Echo 550 acoustic liquid handler (Labcyte). Cells were then added to compound-containing plates at a density of 500-cells/well in 5 μL of medium. A 10-point custom concentration range was used for all listed drugs in a 10×10 matrix. Plates were incubated for 48 hours at standard incubator conditions covered by a stainless steel gasketed lid to prevent evaporation. 48 hours post compound addition, 3 μL of Cell Titer Glo (Promega) were added to each well and plates were incubated at room temperature for 15 minutes with the stainless-steel lid in place. Luminescence readings were taken using a Viewlux imager (PerkinElmer) with a 2 second exposure time per plate.
# Each compound was studied in combination with venetoclax at two concentration ranges of compound and venetoclax, respectively (for a total of 4 combination dose-response curves). The dose combinations that yielded the optimal synergy score, measured as excess HSA, which are reported in Tables 23 and 24 for the FLT3 mutant cell line MOLM14 (D835Y) and the FLT3 WT cell line THP1, respectively.
# Table 24 provides combination outcomes for representative compounds with venetoclax in the Cell Titer Glo assay in THP1 (FLT3 wild type) cells at 48 hours. The table provides relative excess HSA values for compounds of the disclosure used in combination with venetoclax compared to gilteritinib hemifumarate used in combination with venetoclax. A negative excess HSA score illustrates that the drug combination is better than either drug alone, wherein greater synergy is observed at larger negative values of the excess HSA score.
# Excess HSA is a measure of synergy vs. additivity or antagonism, wherein a negative excess HSA value is indicative of synergy. More information on excess HSA scores can be found in Vlot, Anna H. C. et al., Drug Discovery Today, 2019, 24(12):2286-2298. […] However, different methodologies may yield different numerical scores, and different definitions of what constitutes a deviation from mere additivity vs true drug synergy. The large negative excess HSA values provided in Tables 23 and 24 illustrate that multiple members of this structural class synergize with venetoclax. The degree to which combination therapy has to potential to produce enhanced effects with lower side effects not obtained using either agent alone, or beyond the additive effect of the different concentrations of the two different agents depends on the nature of the drugs used in the combination, and the specific doses/concentrations at which they are ultimately used in the therapeutic regimen. A negative excess HSA score illustrates that the drug combination is better than either drug alone (at the concentrations being studied). […] However, the utility in certain drug combinations vs. others should not be distinguished based on cutoffs between excess HSA scores, because the score itself is only a relative indicator that is completely dependent on experimental design and is not an absolute number. Furthermore, the concept of what constitutes clinically meaningful drug synergy is something that is still being debated, not only between pharmacologists and physicians, but amongst pharmacologists themselves. […]
row,Structure (SMILES),Excess HSA
1,"COc1cn2ncc(-c3nc(N[C@@H]4CCCNC4)ccc3F)c2nc1C1CC1 [Compound 2, (R)-6-(5-cyclopropyl-6-methoxypyrazolo[1,5-a]pyrimidin-3-yl)-5-fluoro-N-(piperidin-3-yl)pyridin-2-amine]",−990.8
2,"COc1cn2ncc(-c3nc(N[C@@H]4CCCNC4)ncc3F)c2nc1C1CC1 [Compound 14a, (R)-4-(5-cyclopropyl-6-methoxypyrazolo[1,5-a]pyrimidin-3-yl)-5-fluoro-N-(piperidin-3-yl)pyrimidin-2-amine]",−1210

# Same assay, conditions: compound 0-10 μM, venetoclax 0-2 μM, 10 × 10, 48 h, negative = synergy
row,Structure (SMILES),Excess HSA
1,"COc1cn2ncc(-c3ccnc(N[C@H]4CNCC[C@@H]4F)n3)c2nc1C(C)(C)O [Compound 3a, 2-(3-(2-(((3S,4S)-4-fluoropiperidin-3-yl)amino)pyrimidin-4-yl)-6-methoxypyrazolo[1,5-a]pyrimidin-5-yl)propan-2-ol]",−1645
2,"COc1cn2ncc(-c3nc(N[C@H]4CNCC[C@@H]4F)ncc3F)c2nc1C(C)(C)O [Compound 6a, 2-(3-(5-fluoro-2-(((3S,4S)-4-fluoropiperidin-3-yl)amino)pyrimidin-4-yl)-6-methoxypyrazolo[1,5-a]pyrimidin-5-yl)propan-2-ol]",−786.4
3,"COc1cn2ncc(-c3nc(N[C@H]4CNCC[C@@H]4F)ncc3F)c2nc1C1CC1 [Compound 15a, 4-(5-cyclopropyl-6-methoxypyrazolo[1,5-a]pyrimidin-3-yl)-5-fluoro-N-((3S,4S)-4-fluoropiperidin-3-yl)pyrimidin-2-amine]",−861.1
4,"COc1cn2ncc(-c3nc(N[C@H]4CNCC[C@@H]4F)c(F)cc3F)c2nc1C1CC1 [Compound 22, 6-(5-cyclopropyl-6-methoxypyrazolo[1,5-a]pyrimidin-3-yl)-3,5-difluoro-N-((3S,4S)-4-fluoropiperidin-3-yl)pyridin-2-amine]",−850.4

# Same assay, conditions: compound 0-10 μM, venetoclax 0-20 μM, 10 × 10, 48 h, negative = synergy
row,Structure (SMILES),Excess HSA
1,"COc1cn2ncc(-c3ccnc(N[C@H]4CNCC[C@@H]4F)n3)c2nc1C1CC1 [Compound 7a, 4-(5-cyclopropyl-6-methoxypyrazolo[1,5-a]pyrimidin-3-yl)-N-((3S,4S)-4-fluoropiperidin-3-yl)pyrimidin-2-amine]",−1947
2,"COc1cn2ncc(-c3cncc(N[C@H]4CNCC[C@@H]4F)n3)c2nc1C1CC1 [Compound 12a, 6-(5-cyclopropyl-6-methoxypyrazolo[1,5-a]pyrimidin-3-yl)-N-((3S,4S)-4-fluoropiperidin-3-yl)pyrazin-2-amine]",−1869
3,"COc1cn2ncc(-c3nc(N[C@H]4CNC[C@@H]4F)c(F)cc3F)c2nc1C1CC1 [Compound 24, 6-(5-cyclopropyl-6-methoxypyrazolo[1,5-a]pyrimidin-3-yl)-3,5-difluoro-N-((3S,4S)-4-fluoropyrrolidin-3-yl)pyridin-2-amine]",−1766
